The text below walks through data of patent publication US20230089073A1 (Carmot Therapeutics, Inc., priority 2021, published 2023).

The target of the experiment is T1, human GLP-1 receptor (Homo sapiens, UniProt P43220).
T1 construct: expressed in transfected cells
T1 sequence (P43220 24-463): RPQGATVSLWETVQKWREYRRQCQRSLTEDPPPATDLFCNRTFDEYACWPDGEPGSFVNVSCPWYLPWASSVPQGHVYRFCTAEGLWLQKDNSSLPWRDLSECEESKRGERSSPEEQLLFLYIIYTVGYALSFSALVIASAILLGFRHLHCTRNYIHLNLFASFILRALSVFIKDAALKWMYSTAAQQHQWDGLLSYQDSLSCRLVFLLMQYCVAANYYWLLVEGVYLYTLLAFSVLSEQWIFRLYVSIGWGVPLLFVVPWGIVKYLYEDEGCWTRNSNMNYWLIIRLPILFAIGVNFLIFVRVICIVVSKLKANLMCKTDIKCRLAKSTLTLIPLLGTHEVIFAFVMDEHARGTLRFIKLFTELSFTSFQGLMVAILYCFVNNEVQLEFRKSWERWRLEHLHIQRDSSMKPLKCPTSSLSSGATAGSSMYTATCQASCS
Nature of the experiment: GLP-1R cAMP Assay. In kind it is cell-based. To be noted: cAMP accumulation in CHO cells stably overexpressing the human GLP-1 receptor; 30 min treatment; HitHunter cAMP kit; read-out: EC50. A digest of the protocol:
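Luminescent enzyme-complementation detection of cAMP, read after cell lysis and overnight incubation, with dose-response curve fitting. Stimulation lasted 30 min, using 20-point triplicate dosing on CHO cells (10,000 per well) stably overexpressing human GLP-1R.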
(In general: Changes in cAMP serve as a functional read-out for many G protein-coupled receptors.)
For `O=C(O)c1ccc2nc(CN3CCC(Oc4cccc(COc5cc(Cl)cc(Cl)c5)c4)CC3)n(C[C@@H]3CCO3)c2c1` [Compound 242, 2-[(4-{3-[(3,5-dichlorophenoxy)methyl]phenoxy}piperidin-1-yl)methyl]-1-{[(2S)-oxetan-2-yl]methyl}-1H-1,3-benzodiazole-6-carboxylic acid], the EC50 was less than 50 nM. The result for `O=C(O)c1ccc2nc(CN3CCC(Oc4cccc(COc5cccc(Cl)c5Cl)c4)CC3)n(C[C@@H]3CCO3)c2c1` [Compound 243, 2-[(4-{3-[(2,3-dichlorophenoxy)methyl]phenoxy}piperidin-1-yl)methyl]-1-{[(2S)-oxetan-2-yl]methyl}-1H-1,3-benzodiazole-6-carboxylic acid] reads less than 50 nM; that for `CCn1cncc1Cn1c(CN2CCC(Oc3cccc(COc4ccc(Cl)cc4C#N)n3)CC2)nc2ccc(C(=O)O)cc21` [Compound 246, 2-{[4-({6-[(4-chloro-2-cyanophenoxy)methyl]pyridin-2-yl}oxy)piperidin-1-yl]methyl}-1-[(1-ethyl-1H-imidazol-5-yl)methyl]-1H-1,3-benzodiazole-6-carboxylic acid], less than 50 nM; that for `CCn1cncc1Cn1c(CN2CCC(Oc3cccc(COc4ccc(Cl)cc4F)n3)CC2)nc2ccc(C(=O)O)cc21` [Compound 247, 2-{[4-({6-[(4-chloro-2-fluorophenoxy)methyl]pyridin-2-yl}oxy)piperidin-1-yl]methyl}-1-[(1-ethyl-1H-imidazol-5-yl)methyl]-1H-1,3-benzodiazole-6-carboxylic acid], less than 50 nM. The result for `N#Cc1cc(Cl)ccc1OCc1cccc(OC2CCN(Cc3nc4ccc(C(=O)O)cc4n3C[C@@H]3CCO3)CC2)n1` [Compound 248, 2-{[4-({6-[(4-chloro-2-cyanophenoxy)methyl]pyridin-2-yl}oxy)piperidin-1-yl]methyl}-1-{[(2S)-oxetan-2-yl]methyl}-1H-1,3-benzodiazole-6-carboxylic acid] reads 50 to 500 nM; that for `O=C(O)c1ccc2nc(CN3CCC(Oc4cccc(COc5ccc(Cl)cc5F)n4)CC3)n(C[C@@H]3CCO3)c2c1` [Compound 249, 2-{[4-({6-[(4-chloro-2-fluorophenoxy)methyl]pyridin-2-yl}oxy)piperidin-1-yl]methyl}-1-{[(2S)-oxetan-2-yl]methyl}-1H-1,3-benzodiazole-6-carboxylic acid], less than 50 nM. The same measure for `O=C(O)c1ccc2nc(CN3CCC(Oc4ccnc(COc5ccc(Cl)cc5F)c4)CC3)n(C[C@@H]3CCO3)c2c1` [Compound 250, 2-{[4-({2-[(4-chloro-2-fluorophenoxy)methyl]pyridin-4-yl}oxy)piperidin-1-yl]methyl}-1-{[(2S)-oxetan-2-yl]methyl}-1H-1,3-benzodiazole-6-carboxylic acid]: less than 50 nM; for `N#Cc1cc(Cl)ccc1OCc1cccc(OC2CCN(Cc3nc4ccc(C(=O)O)cc4n3Cc3ncco3)CC2)n1` [Compound 251, 2-{[4-({6-[(4-chloro-cyanophenoxy)methyl]pyridin-2-yl}oxy)piperidin-1-yl]methyl}-1-[(1,3-oxazol-2-yl)methyl]-1H-1,3-benzodiazole-6-carboxylic acid]: more than 500 nM. On to `N#Cc1cc(Cl)ccc1OCc1cccc(OC2CCN(Cc3nc4ccc(C(=O)O)cc4n3Cc3cnco3)CC2)n1` [Compound 252, 2-{[4-({6-[(4-chloro-2-cyanophenoxy)methyl]pyridin-2-yl}oxy)piperidin-1-yl]methyl}-1-[(1,3-oxazol-5-yl)methyl]-1H-1,3-benzodiazole-6-carboxylic acid], for which the EC50 was more than 500 nM. Take `N#Cc1cc(Cl)ccc1OCc1cccc(OC2CCN(Cc3nc4ccc(C(=O)O)cc4n3Cc3ccno3)CC2)n1` [Compound 253, 2-{[4-({6-[(4-chloro-2-cyanophenoxy)methyl]pyridin-2-yl}oxy)piperidin-1-yl]methyl}-1-[(1,2-oxazol-5-yl)methyl]-1H-1,3-benzodiazole-6-carboxylic acid]: the EC50 was more than 500 nM.

Turning to `C[C@H]1C[C@H](Oc2cccc(COc3ccc(Cl)cc3Cl)c2)CCN1Cc1nc2ccc(C(=O)O)cc2n1C[C@@H]1CCO1` [Compound 254, 2-{[(2S,4R)-4-{3-[(2,4-dichlorophenoxy)methyl]phenoxy}-2-methylpiperidin-1-yl]methyl}-1-{[(2S)-oxetan-2-yl]methyl}-1H-1,3-benzodiazole-6-carboxylic acid], the EC50 was less than 50 nM.

For the compound `Cn1cncc1Cn1c(CN2CCC(Oc3cccc(COc4ccc(Cl)cc4Cl)c3)CC2)nc2ccc(C(=O)O)cc21` [Compound 255, 2-[(4-{3-[(2,4-dichlorophenoxy)methyl]phenoxy}piperidin-1-yl)methyl]-1-[(1-methyl-1H-imidazol-5-yl)methyl]-1H-1,3-benzodiazole-6-carboxylic acid], the EC50 is less than 50 nM. The result for `CCn1cncc1Cn1c(CN2CCN(C(=O)c3cnc(COc4ccc(Cl)cc4Cl)o3)C[C@@H]2C)nc2ccc(C(=O)O)cc21` [Compound 256, 2-{[(2S)-4-{2-[(2,4-dichlorophenoxy)methyl]-1,3-oxazole-5-carbonyl}-2-methylpiperazin-1-yl]methyl}-1-[(1-ethyl-1H-imidazol-5-yl)methyl]-1H-1,3-benzodiazole-6-carboxylic acid] reads less than 50 nM; that for `O=C(O)c1ccc2nc(CN3CCC(Oc4ccnc(COc5ccc(Cl)cc5Cl)c4)CC3)n(Cc3ccno3)c2c1` [Compound 257, 2-{[4-({2-[(2,4-dichlorophenoxy)methyl]pyridin-4-yl}oxy)piperidin-1-yl]methyl}-1-[(1,2-oxazol-5-yl)methyl]-1H-1,3-benzodiazole-6-carboxylic acid], less than 50 nM.

On to `O=C(O)c1ccc2nc(CN3CCC(Oc4ccnc(COc5ccc(Cl)cc5F)c4)CC3)n(Cc3ncco3)c2c1` [Compound 258, 2-{[4-({2-[(4-chloro-2-fluorophenoxy)methyl]pyridin-4-yl}oxy)piperidin-1-yl]methyl}-1-[(1,3-oxazol-2-yl)methyl]-1H-1,3-benzodiazole-6-carboxylic acid], for which the EC50 is less than 50 nM. For `Cn1cncc1Cn1c(CN2CCC(Oc3ccnc(COc4ccc(Cl)cc4C#N)c3)CC2)nc2ccc(C(=O)O)cc21` [Compound 259, 2-{[4-({2-[(4-chloro-2-cyanophenoxy)methyl]pyridin-4-yl}oxy)piperidin-1-yl]methyl}-1-[(1-methyl-1H-imidazol-5-yl)methyl]-1H-1,3-benzodiazole-6-carboxylic acid], the EC50 was less than 50 nM. As for `Cn1cncc1Cn1c(CN2CCC(Oc3cccc(COc4ccc(Cl)cc4F)n3)CC2)nc2ccc(C(=O)O)cc21` [Compound 264, 2-{[4-({6-[(4-chloro-2-fluorophenoxy)methyl]pyridin-2-yl}oxy)piperidin-1-yl]methyl}-1-[(1-methyl-1H-imidazol-5-yl)methyl]-1H-1,3-benzodiazole-6-carboxylic acid], the EC50 was less than 50 nM. On to `O=C(O)c1ccc2nc(CN3CCC(Oc4ccnc(COc5ccc(Cl)cc5F)c4)CC3)n(Cc3cnco3)c2c1` [Compound 265, 2-{[4-({2-[(4-chloro-2-fluorophenoxy)methyl]pyridin-4-yl}oxy)piperidin-1-yl]methyl}-1-[(1,3-oxazol-5-yl)methyl]-1H-1,3-benzodiazole-6-carboxylic acid], for which the EC50 was less than 50 nM.

Regarding `O=C(O)c1ccc2nc(CN3CCC(Oc4ccnc(COc5ccc(Cl)cc5F)c4)CC3)n(Cc3ccno3)c2c1` [Compound 266, 2-{[4-({2-[(4-chloro-2-fluorophenoxy)methyl]pyridin-4-yl}oxy)piperidin-1-yl]methyl}-1-[(1,2-oxazol-5-yl)methyl]-1H-1,3-benzodiazole-6-carboxylic acid], the EC50 is less than 50 nM. The same measure for `Cn1cncc1Cn1c(CN2CCC(Oc3ccnc(COc4ccc(Cl)cc4F)c3)CC2)nc2ccc(C(=O)O)cc21` [Compound 267, 2-{[4-({2-[(4-chloro-2-fluorophenoxy)methyl]pyridin-4-yl}oxy)piperidin-1-yl]methyl}-1-[(1-methyl-1H-imidazol-5-yl)methyl]-1H-1,3-benzodiazole-6-carboxylic acid]: less than 50 nM; for `O=C(O)c1ccc2nc(CN3CCC(Oc4cccc(COc5ccc(Cl)cc5F)n4)CC3)n(Cc3ncco3)c2c1` [Compound 268, 2-{[4-({6-[(4-chloro-2-fluorophenoxy)methyl]pyridin-2-yl}oxy)piperidin-1-yl]methyl}-1-[(1,3-oxazol-2-yl)methyl]-1H-1,3-benzodiazole-6-carboxylic acid]: less than 50 nM. Take `O=C(O)c1ccc2nc(CN3CCC(Oc4cccc(COc5ccc(Cl)cc5F)n4)CC3)n(Cc3cnco3)c2c1` [Compound 269, 2-{[4-({6-[(4-chloro-2-fluorophenoxy)methyl]pyridin-2-yl}oxy)piperidin-1-yl]methyl}-1-[(1,3-oxazol-5-yl)methyl]-1H-1,3-benzodiazole-6-carboxylic acid]: the EC50 is less than 50 nM.

For `O=C(O)c1ccc2nc(CN3CCC(Oc4cccc(COc5ccc(Cl)cc5F)n4)CC3)n(Cc3ccno3)c2c1` [Compound 270, 2-{[4-({6-[(4-chloro-2-fluorophenoxy)methyl]pyridin-2-yl}oxy)piperidin-1-yl]methyl}-1-[(1,2-oxazol-5-yl)methyl]-1H-1,3-benzodiazole-6-carboxylic acid], the EC50 is less than 50 nM. Turning to `CCn1cncc1Cn1c(CN2CCC(Oc3ccccc3COc3ccc(Cl)cc3Cl)CC2)nc2ccc(C(=O)O)cc21` [Compound 272, 2-[(4-{2-[(2,4-dichlorophenoxy)methyl]phenoxy}piperidin-1-yl)methyl]-1-[(1-ethyl-1H-imidazol-5-yl)methyl]-1H-1,3-benzodiazole-6-carboxylic acid], the EC50 is 50 to 500 nM. Take `CCn1cncc1Cn1c(CN2CCC(Oc3ccnc(COc4ccc(C#N)cc4F)c3)CC2)nc2ccc(C(=O)O)cc21` [Compound 275, 2-{[4-({2-[(4-cyano-2-fluorophenoxy)methyl]pyridin-4-yl}oxy)piperidin-1-yl]methyl}-1-[(1-ethyl-1H-imidazol-5-yl)methyl]-1H-1,3-benzodiazole-6-carboxylic acid]: the EC50 is less than 50 nM.

Broadly, the EC50 is the concentration that produces a half-maximal response.
